Results on two compounds are retold here after patent publication US9763874B2, “Nanoparticles loaded with chemotherapeutic antitumoral drug” (priority 2011, dated 2017).

The subject of one series is healthy Wistar rats. Briefly: Example 2: adverse effects after a single IV bolus injection (mortality, lung injuries). In kind it is in vivo, rat. The conditions noted are these: 7.5 mg/kg single IV bolus. The method, then:
The aim of the present in vivo study was to establish and assess a rat model able to induce toxicological signs and lung injuries similar to severe pulmonary adverse events observed in said clinical trial.
The dose levels of 5, 7.5 and 10 mg/kg were chosen according to previous in vivo studies, they respectively correspond to 30 mg/m2, 45 mg/m2 and 60 mg/m2 human doses.
The study involved finally 123 male Wistar rats.
Rats were weighted and distributed according to their individual body weight to form […] the day of IV treatment.
Drug suspension was administered according to the body weight of rat determined just before the administration, so as to administer a dose volume of 670 μl of a 3.71 mg/ml suspension to a 250 g rat. • The rats from groups 13 to 16 received a single IV injection of Doxorubicin at 7.5 mg/kg equivalent Doxorubicin HCl (Q1Dx1). […] Solution was administered according to the body weight of rat determined just before the administration, so as to administer a dose volume of 670 μl solution to a 250 g rat. • The rats from group 21 (Untreated control group) received no treatment.
Treatment allocation was decided at random and was as disclosed in Table 2.

The subject of the next series is HCC. The conditions noted are these: IV infusion in HCC; cited from earlier work.
For a further series, the system named is unresectable HCC. As to conditions: patients with unresectable HCC; cited from earlier work.

As to `COc1cccc2c1C(=O)c1c(O)c3c(c(O)c1C2=O)C[C@@](O)(C(=O)CO)C[C@@H]3O[C@H]1C[C@H](N)[C@H](O)[C@H](C)O1` [Doxorubicin, doxorubicin], in the series with healthy Wistar rats, the “mortality and lung injuries” value is recorded as “Neither mortality, nor lung injuries”. For the same compound, the objective response rate in the series with HCC was 5-10%.

As to `CNC(=O)c1cc(Oc2ccc(NC(=O)Nc3ccc(Cl)c(C(F)(F)F)c3)cc2)ccn1` [sorafenib], the “overall survival over placebo” value in the series on unresectable HCC is “increase even modest”.
